Measured values reported in patent US6288091A, “Antiherpes virus compounds and methods for their preparation and use” (Boehringer Ingelheim Ltd., priority 1999, dated 2001).
Like-named read-outs stand apart in the source and are kept apart here.

Assays:
[1] = test system: HCMV (strain AD169); test: Inhibition of HCMV replication, ELISA assay (Hs-68 cells); format: cell-based, Human Cytomegalovirus (HCMV); details: read-out: ELISA CMV EC50
Method: C) Inhibition of Human Cytomegalovirus (HCMV) Replication
The effect of compounds on the replication of HCMV has been measured by using an ELISA-based assay (ELISA) and a plaque reduction assay (PRA).
Hs-68 cells (ATCC # CRL 1635) were seeded in 96 well microtiter plates at 10,000 cells/well in 100 μL of DMEM medium (Gibco Canada Inc.) supplemented with 10% fetal bovine serum (FBS, Gibco Canada Inc.). The plates were incubated for 3 days at 37° to allow the cells to reach 80-90% confluency prior to the assay.
The medium was removed from wells by aspiration. The cells then were infected at a multiplicity of infection (MOI) of 0.01 PFU/cell with 50 μL of HCMV (strain AD169, ATCC VR-538) in DMEM medium supplemented with 5% heat inactivated FBS (assay medium). The virus was allowed to adsorb to cells for 2 h at 37°. Following viral adsorption, the medium was removed from the wells by aspiration. The cells were washed twice with 200 μL of assay medium to remove unabsorbed virus. The cells were then incubated with or without 100 μL of appropriate concentrations of test reagent in assay medium. After 8 days of incubation at 37°, the extent of viral replication was determined by an ELISA assay which detects the late structural protein p28 of HCMV.
Eight days after infection, the medium was aspirated from the wells. Non-specific binding sites were blocked by adding 200 μL of phosphate buffered saline containing 1% (w/v) bovine serum albumin (blocking buffer) to each well and incubating the plates for 30 min at room temperature. After removal of the blocking buffer by aspiration, the cells were fixed with 100 μL of cold ethanol-acetone solution (95:5) per well. The plates were placed at -20° for 30 min. The plates were washed 4 times with phosphate buffered saline containing 0.05% (v/v) polyoxyethylene sorbitan monolaurate (Tween®). Thereafter, 100 μL of mAb UL99 (Advanced Biotechnologies Inc., #13-130-100) recognizing HCMV protein p28 was added to each wells and plates were incubated for 2 h at room temperature. The plates were washed four times with 200 μL of the above-noted phosphate buffered saline/Tween-20® solution. The cells were then incubated with 100 μL of sheep anti-mouse IgGγ horseradish peroxidase conjugated for 2 h at room temperature. The plates were then washed four times with 200 μL of above-noted phosphate buffered saline/Tween-20® solution. Thereafter, 100 μL of ortho phenylenediamine dihydrochloride (OPD, Gibco Canada Inc.) solution was added to each well and the plates were agitated on a microplate shaker for 30 min in the dark. Color development was monitored at 450 nm using a microplate spectrophotometer.
The SAS program was used to calculate the % inhibition of viral replication and to generate EC50 values.
The EC50 values obtained according to this assay method for certain thiazolylphenyl derivatives of this invention are listed in the following tables under the heading ELISA CMV.

[2] = target: T1, HSV-1 helicase-primase (Human herpesvirus 1, UniProt P10189+P10236); test: HSV-1 DNA-dependent ATPase assay (inhibition of HSV-1 helicase-primase); format: biochemical
T1 construct: made in house; host or cells: Sf21 insect cells triply infected with recombinant baculoviruses (UL5, UL8, UL52)
Summary of the method: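 ATP hydrolysis was measured as inorganic phosphate (malachite green/molybdate, 650 nm) after 20 min at 34°. Reaction: 3 μg/mL purified Sf21-expressed UL5/UL8/UL52 helicase-primase, 25 μM single-stranded M13 DNA hybridized to 68-mer, 4 mM ATP, pH 7.5 HEPES buffer, 3.3% DMSO. Net absorbance change with and without inhibitor gave DNA-dependent ATPase activity.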

[3] = test system: HSV-1 strain F or KOS; test: Inhibition of herpes simplex virus (HSV-1) replication in cell culture (BHK-21 cells, glycoprotein C ELISA); format: cell-based
Summary of the method: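 Replication readout: ELISA for HSV-1 late glycoprotein C (mAb C11, peroxidase-OPD, 450 nm) on glutaraldehyde-fixed cells. Monolayers (~50,000 cells/well) were infected with strain F or KOS (MOI 0.05 PFU/cell), then incubated 24 h at 37° with compound in 2% FBS α-MEM. EC50 derived from % inhibition.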

[4] = Human betaherpesvirus 5, AD169, Hs68, Group 1 Table 5 entries
[5] = Human alphaherpesvirus 1, BHK-21, Group 1 Table 5 entries
[6] = Human betaherpesvirus 5, AD169, Hs68, Group 1 Table 3 entries
[7] = Human alphaherpesvirus 1, BHK-21, Group 1 Table 3 entries
[8] = Human betaherpesvirus 5, AD169, Hs68, Group 1 Table 1 entries
[9] = Human alphaherpesvirus 1, BHK-21, Group 1 Table 1 entries

T1 sequence (P10192 whole entry): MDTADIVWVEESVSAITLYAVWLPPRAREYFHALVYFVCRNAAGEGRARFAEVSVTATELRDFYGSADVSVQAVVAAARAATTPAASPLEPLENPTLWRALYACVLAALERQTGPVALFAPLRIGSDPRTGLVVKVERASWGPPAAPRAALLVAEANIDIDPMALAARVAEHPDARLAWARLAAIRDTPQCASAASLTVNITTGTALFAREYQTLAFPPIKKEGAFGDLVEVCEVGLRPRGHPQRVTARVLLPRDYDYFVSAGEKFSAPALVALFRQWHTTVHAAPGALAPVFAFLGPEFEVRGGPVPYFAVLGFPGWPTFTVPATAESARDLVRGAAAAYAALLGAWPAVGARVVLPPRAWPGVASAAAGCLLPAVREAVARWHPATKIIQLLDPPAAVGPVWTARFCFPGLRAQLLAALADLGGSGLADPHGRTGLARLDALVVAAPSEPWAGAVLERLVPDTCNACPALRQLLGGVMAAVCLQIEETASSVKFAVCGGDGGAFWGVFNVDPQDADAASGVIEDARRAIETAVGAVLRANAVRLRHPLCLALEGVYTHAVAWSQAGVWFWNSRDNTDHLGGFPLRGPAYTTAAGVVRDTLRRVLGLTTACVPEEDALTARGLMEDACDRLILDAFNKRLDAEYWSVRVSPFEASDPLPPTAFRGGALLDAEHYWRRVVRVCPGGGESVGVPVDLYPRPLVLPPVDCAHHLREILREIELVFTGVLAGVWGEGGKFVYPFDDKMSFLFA
T1 sequence (P10236 whole entry): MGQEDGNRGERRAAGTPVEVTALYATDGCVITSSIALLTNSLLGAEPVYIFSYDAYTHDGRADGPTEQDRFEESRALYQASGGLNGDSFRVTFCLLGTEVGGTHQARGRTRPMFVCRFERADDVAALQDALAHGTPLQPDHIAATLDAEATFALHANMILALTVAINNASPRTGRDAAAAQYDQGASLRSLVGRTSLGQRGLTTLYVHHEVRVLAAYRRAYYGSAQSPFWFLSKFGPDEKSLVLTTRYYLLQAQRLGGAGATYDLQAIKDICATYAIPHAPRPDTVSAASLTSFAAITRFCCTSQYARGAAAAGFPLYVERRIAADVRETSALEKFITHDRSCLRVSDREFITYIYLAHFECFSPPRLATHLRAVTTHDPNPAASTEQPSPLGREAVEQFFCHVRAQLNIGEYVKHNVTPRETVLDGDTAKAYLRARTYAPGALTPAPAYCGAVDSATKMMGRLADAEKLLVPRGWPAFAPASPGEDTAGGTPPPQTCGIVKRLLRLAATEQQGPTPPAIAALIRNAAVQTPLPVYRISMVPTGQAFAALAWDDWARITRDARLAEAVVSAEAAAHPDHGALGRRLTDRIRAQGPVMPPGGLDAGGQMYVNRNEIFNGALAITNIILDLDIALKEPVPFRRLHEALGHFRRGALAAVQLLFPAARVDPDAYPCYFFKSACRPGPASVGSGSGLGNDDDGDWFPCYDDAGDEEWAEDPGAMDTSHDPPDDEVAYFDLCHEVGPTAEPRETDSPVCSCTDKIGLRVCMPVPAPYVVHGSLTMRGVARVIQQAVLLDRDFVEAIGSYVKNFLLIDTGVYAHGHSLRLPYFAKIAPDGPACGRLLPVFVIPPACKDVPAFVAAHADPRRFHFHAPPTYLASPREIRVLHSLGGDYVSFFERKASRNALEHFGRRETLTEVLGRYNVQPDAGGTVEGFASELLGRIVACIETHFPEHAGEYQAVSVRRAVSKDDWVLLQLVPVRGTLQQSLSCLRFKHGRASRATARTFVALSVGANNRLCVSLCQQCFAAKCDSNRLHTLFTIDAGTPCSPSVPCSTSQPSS
T1 sequence (P10189 whole entry): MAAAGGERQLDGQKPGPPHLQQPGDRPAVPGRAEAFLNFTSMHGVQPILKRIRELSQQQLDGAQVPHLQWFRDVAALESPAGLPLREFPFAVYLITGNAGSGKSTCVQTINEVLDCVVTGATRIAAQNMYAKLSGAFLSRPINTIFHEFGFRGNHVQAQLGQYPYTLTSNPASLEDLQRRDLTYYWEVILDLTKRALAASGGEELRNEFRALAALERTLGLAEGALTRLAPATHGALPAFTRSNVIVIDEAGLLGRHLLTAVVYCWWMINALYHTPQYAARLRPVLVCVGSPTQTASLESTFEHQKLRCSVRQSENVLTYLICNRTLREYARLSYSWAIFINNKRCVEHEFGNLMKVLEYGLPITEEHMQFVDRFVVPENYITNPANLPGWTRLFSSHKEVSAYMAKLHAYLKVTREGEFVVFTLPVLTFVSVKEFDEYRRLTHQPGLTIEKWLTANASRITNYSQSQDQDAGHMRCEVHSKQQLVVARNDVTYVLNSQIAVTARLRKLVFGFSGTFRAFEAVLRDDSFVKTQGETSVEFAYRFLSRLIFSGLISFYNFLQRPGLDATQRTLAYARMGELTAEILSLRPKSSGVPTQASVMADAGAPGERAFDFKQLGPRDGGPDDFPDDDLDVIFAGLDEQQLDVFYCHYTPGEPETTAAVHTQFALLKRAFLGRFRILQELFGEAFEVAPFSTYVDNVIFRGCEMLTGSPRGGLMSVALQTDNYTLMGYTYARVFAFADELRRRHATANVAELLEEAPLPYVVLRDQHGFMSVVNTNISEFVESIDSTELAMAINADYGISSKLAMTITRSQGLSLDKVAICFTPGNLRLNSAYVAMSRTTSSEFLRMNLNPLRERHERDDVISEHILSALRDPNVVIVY

| SMILES | EC50 [1, 4] [µM] | IC50 ([2]; Group 1 Table 5 entries) [µM] | EC50 [3, 5] [µM] | EC50 [1, 8] [µM] | IC50 ([2]; Group 1 Table 1 entries) [µM] | EC50 [3, 9] [µM] | further results |
| --- | --- | --- | --- | --- | --- | --- | --- |
| C[C@@H](C(=O)Nc1ccc(-c2csc(N)n2)cc1)N(Cc1ccccc1)C(=O)OC(C)(C)C [Example 16] | 2.8 | 0.46 | 0.079 |  |  |  |  |
| CN(C)c1nc(-c2ccc(NC(=O)CN(CC3CCCCC3)C(=O)OC(C)(C)C)cc2)cs1 [Example 17] |  |  |  |  |  |  | EC50 [1, 6]: 4 µM; IC50 ([2]; Group 1 Table 3 entries): > 50 µM; EC50 [3, 7]: > 8 µM |
| C[C@H](C(=O)Nc1ccc(-c2csc(N)n2)cc1)N(Cc1ccccc1)C(=O)OC(C)(C)C [Example 17] | 7.6 | 0.11 | 0.055 |  |  |  |  |
| CC(=O)Nc1nc(-c2ccc(NC(=O)CN(Cc3ccccc3)C(=O)c3ccncc3)cc2)cs1 [Example 19] |  |  |  |  |  |  | EC50 [1, 6]: 28 µM; IC50 ([2]; Group 1 Table 3 entries): > 50 µM; EC50 [3, 7]: 9 µM |
| CC(C)(C)C(=O)N[C@@H](Cc1ccccc1)C(=O)Nc1ccc(-c2csc(N)n2)cc1 [Example 20] | 10 | 1.3 | 0.6 |  |  |  |  |
| CC(=O)N[C@@H](Cc1ccccc1)C(=O)Nc1ccc(-c2csc(N)n2)cc1 [Example 21] | 4.4 | 3.1 | 4.7 |  |  |  |  |
| CC(C)OC(=O)N[C@@H](Cc1ccccc1)C(=O)Nc1ccc(-c2csc(N)n2)cc1 [Example 22] | 18 | 0.83 | 0.25 |  |  |  |  |
| CC(C)(C)OC(=O)N[C@@H](CC1CCCCC1)C(=O)Nc1ccc(-c2csc(N)n2)cc1 [Example 24] | 8.1 | 0.017 | 0.043 |  |  |  |  |
| Cc1cccc(C)c1C(=O)N(CC(=O)Nc1ccc(-c2csc(N)n2)cc1)Cc1ccccc1 [Example 25] |  |  |  | 4.4 | 0.047 | 0.011 |  |
| CC(C)(C)OC(=O)N[C@@H](Cc1cccnc1)C(=O)Nc1ccc(-c2csc(N)n2)cc1 [Example 26] | 19.9 | 0.13 | 0.043 |  |  |  |  |
| Nc1nc(-c2ccc(NC(=O)NN3CCCCC3)cc2)cs1 [Example 27] |  |  |  |  |  |  | EC50 ([1]; Human betaherpesvirus 5, AD169, Hs68, Group 2 Table 1 entries): 15.4 µM; IC50 ([2]; Group 2 Table 1 entries): 50 µM; EC50 ([3]; Human alphaherpesvirus 1, BHK-21, Group 2 Table 1 entries): 15.7 µM |
| C[C@@H](c1ccccc1)N(C)CCC(=O)Nc1ccc(-c2csc(N)n2)cc1 [Example 28] |  |  |  |  |  |  | EC50 ([1]; Human betaherpesvirus 5, AD169, Hs68, Group 1 Table 2 entries): 18 µM; EC50 ([3]; Human alphaherpesvirus 1, BHK-21, Group 1 Table 2 entries): 2 µM |
| CC1(C(=O)N(CC(=O)Nc2ccc(-c3csc(N)n3)cc2)Cc2ccccc2)CCCCC1 [Example 35] |  |  |  | 8.1 | 0.035 | 0.006 |  |
| CC(C)(C)OC(=O)N1CCC(C(=O)N(CC(=O)Nc2ccc(-c3csc(N)n3)cc2)Cc2ccccc2)CC1 [Example 40] |  |  |  | 25 | 1.7 | 0.7 |  |
| COc1ccc(CN(CC(=O)Nc2ccc(-c3csc(N)n3)cc2)C(=O)C2CCCCC2)cc1 [Example 46] |  |  |  | 8 | 0.075 | 0.094 |  |
| Nc1nc(-c2ccc(NC(=O)CN(Cc3ccccn3)C(=O)c3ccncc3)cc2)cs1 [Example 56] |  |  |  | 38 | 1.2 | 0.55 |  |
| C[C@@H](C1CCCCC1)N(CC(=O)Nc1ccc(-c2csc(N)n2)cc1)C(=O)OC(C)(C)C [Example 108] |  |  |  | 6.8 |  | 0.39 |  |
| CC(C)CN(CC(=O)Nc1ccc(-c2csc(N)n2)cc1)C(=O)OC(C)(C)C [Example 112] |  |  |  | 3.2 |  | 1.2 |  |
| Nc1nc(CC(=O)N(CC(=O)Nc2ccc(-c3csc(N)n3)cc2)Cc2ccccc2)cs1 [Example 119] |  |  |  | 25 | 0.68 |  |  |
| CN1CCC(C(=O)N(CC(=O)Nc2ccc(-c3csc(N)n3)cc2)Cc2ccccc2)CC1 [Example 123] |  |  |  | 41 | > 50 |  |  |
